Measurements from PMC9841533, “Microtubule-Stabilizing 1,2,4-Triazolo[1,5-a]pyrimidines as Candidate Therapeutics for Neurodegenerative Disease: Matched Molecular Pair Analyses and Computational Studies Reveal New Structure–Activity Insights” (Journal of Medicinal Chemistry, 2022).
Like-named read-outs stand apart in the source and are kept apart here.

How the values were obtained:
[1] = system: acetylated α-tubulin (AcTub) levels in QBI293 cells; parameters: method as in PMID 26980057, PMID 33411523; settings: cited from earlier work; for Class (cellular phenotype): activity reported in previous studies
[2] = system: acetylated α-tubulin (AcTub) levels in QBI293 cells; assay: QBI293 cell assay of MT stabilization: acetylated α-tubulin ELISA; type: cell-based
Experimental: (§1) All test compounds were initially screened in the same cell-based (QBI293) assay of MT stabilization used in our previous SAR studies[11],[12] so as to allow direct comparison with literature data. Changes in levels of acetylated α-tubulin (AcTub) and total α-tubulin (α-Tub), relative to vehicle-treated negative control cells, were determined after 4 h of incubation with test compounds at 1 and 10 μM. To account for possible day-to-day differences in the responsiveness of cells to MT-stabilizing treatment, compound-dependent changes in AcTub levels relative to DMSO-treated cells were also normalized to the corresponding changes caused by 100 nM of 5 that was used as a positive control. In addition, docking studies, binding free energy calculations, and in selected cases, molecular dynamic simulations were conducted using an X-ray structure of the vinca and seventh sites (PDB: 5NJH,[10]7CLD[13]). […] For selected compounds, additional studies included testing in the QBI293 cell AcTub assay at additional compound concentrations, and/or evaluation of test compounds for their ability to prevent MT collapse in primary neuron cultures treated with the phosphatase inhibitor, okadaic […] (OA). Finally, cytotoxicity studies in QBI293 and HeLa cells were also conducted for representative examples (Supporting Information).
(§2) Compound-induced changes in acetylated-tubulin and α-tubulin in QBI293 cells or primary mouse or rat neurons were as previously described.[11],[12] […] The plated cells were incubated overnight, after which the medium was aspirated and fresh medium containing vehicle (0.25–0.3% DMSO) or test compound was added. Test compounds were prepared as 4–20 mM stock solutions in 100% DMSO, and these were diluted in culture medium prior to addition to the QBI293 cells. After 4 h incubation, whole-cell extracts were prepared from the QBI293 cells as described[11] and the supernatant fraction from each sample was assessed for protein content by bicinchoninic acid (BCA) assay. The amount of acetyl-tubulin (AcTub) and α-tubulin (αTub) within the cell extract samples was quantified using specific enzyme-linked immunosorbent assays (ELISA), as previously described.[11] Acetyl-tubulin levels were determined in a similar manner in rat or mouse cortical neuron cultures in which embryonic dissociated cortical neurons were plated at 3 × 10^5 cells/well in poly-D-lysine-coated 12-well plates, essentially as previously described.[11] […] Culture homogenates were prepared for the determination of AcTub levels by ELISA as previously described.[11]

[3] = system: total α-tubulin (α-Tub) levels in QBI293 cells; assay: QBI293 cell assay: total α-tubulin ELISA; type: cell-based
Experimental: as §1, §2

[4] = system: total α-tubulin (α-Tub) levels in QBI293 cells; parameters: method as in PMID 26980057, PMID 33411523; settings: 4 h incubation, reported in previous studies, cited from earlier work
[5] = 4 h, 1 uM compound, read-out: AcTub (1uM)
[6] = 4 h, 10 uM compound, read-out: AcTub (10 uM)
[7] = 4 h, 1 uM compound, read-out: AlfaTub (1uM)
[8] = 4 h, 10 uM compound, read-out: AlfaTub (10 uM)
[9] = 4 h incubation, 1 μM, reported in previous studies
[10] = 4 h incubation, 1 μM, read-out: AcTub 1 μM, fold-change compared to vehicle (DMSO)-treated cells
[11] = 4 h incubation, 10 μM, read-out: AcTub 10 μM, fold-change compared to vehicle (DMSO)-treated cells
[12] = 4 h incubation, 1 μM, read-out: α-Tub 1 μM, fold-change compared to vehicle (DMSO)-treated cells
[13] = 4 h incubation, 10 μM, read-out: α-Tub 10 μM, fold-change compared to vehicle (DMSO)-treated cells

Structure (SMILES)	Class (cellular phenotype) [1]	AcTub (1 uM - normalized) ([2]; 1 uM compound)	AcTub (10 uM - normalized) ([2]; 10 uM compound)	fold induction at 1 µM [2, 5]	fold induction at 10 µM [2, 6]	fold induction at 1 µM [3, 7]	fold induction at 10 µM [3, 8]	AcTub 1 μM, fold-change compared to positive control compound 5 (100 nM) (in parentheses) [1, 9]	α-Tub 1 μM, fold-change compared to vehicle (DMSO)-treated cells [4]	α-Tub 10 μM, fold-change compared to vehicle (DMSO)-treated cells ([4]; 10 μM)	AcTub 10 μM, fold-change compared to vehicle (DMSO)-treated cells ([1]; 4 h incubation, 10 μM, reported in previous studies)	AcTub 1 μM, fold-change compared to positive control compound 5 (100 nM) (in parentheses) ([2]; 4 h incubation, 1 μM)	fold induction at 1 µM [2, 10]	AcTub 10 μM, fold-change compared to positive control compound 5 (100 nM) (in parentheses) ([2]; 4 h incubation, 10 μM)	fold induction at 10 µM [2, 11]	fold induction at 1 µM [3, 12]	fold induction at 10 µM [3, 13]	AcTub 1 μM, fold-change compared to vehicle (DMSO)-treated cells [1, 9]
C[C@H](Nc1c(-c2c(F)cc(F)cc2F)c(Cl)nc2ncnn12)C(C)(C)C [Compound 12]	I	–	–	–	–	–	–	–	–	–	–	–	–	–	–	–	–	–
CC1(CNc2c(-c3c(F)cc(F)cc3F)c(Cl)nc3ncnn23)N=N1 [Compound 61]	I	0.12	0.27	1.56	3.42	1.08	1.03	0.12 fold-change	1.08 ± 0.04 fold-change	1.03 ± 0.04 fold-change	–	–	–	–	–	–	–	–
C[C@H](Nc1c(-c2c(F)cc(OCCCN(C)C)cc2F)c(Cl)nc2ncnn12)C1(C)N=N1 [Compound 67]	–	1.01	0.04	6.7	0.28	0.69	0.78	–	0.69 ± 0.05 fold-change	–	0.28 ± 0.03 fold-change	–	–	–	–	–	–	–
CN(C)CCCOc1cc(F)c(-c2c(Cl)nc3ncnn3c2NCC2(C)CC2)c(F)c1 [Compound 28, 5-Chloro-6-(4-(3-(dimethylamino)propoxy)-2,6-difluorophenyl)-N-((1-methylcyclopropyl)methyl)-[1,2,4]triazolo[1,5-a]pyrimidin-7-amine]	–	0.53	0.09	2.81	0.49	0.84	1.1	–	–	–	–	0.53 fold-change	2.81 ± 0.35	0.09 fold-change	0.49 ± 0.03	0.84 ± 0.12	1.1 ± 0.2	–
C[C@@H](Nc1c(-c2c(F)cc(F)cc2F)c(Cl)nc2ncnn12)C1(C)N=N1 [Compound 63]	I	0.11	0.36	1.42	4.28	0.92	0.89	–	–	–	–	–	–	–	–	–	–	1.42 ± 0.08 fold-change
CC(C)[C@H](C)Nc1c(-c2c(F)cc(F)cc2F)c(Cl)nc2ncnn12 [Compound 7]	I	–	–	–	–	–	–	–	–	–	–	–	–	–	–	–	–	–
C[C@@H](Nc1c(-c2c(F)cc(F)cc2F)c(Cl)nc2ncnn12)C(C)(C)C [Compound 10]	I	–	–	–	–	–	–	–	–	–	–	–	–	–	–	–	–	–
C[C@H](Nc1c(-c2c(F)cc(C#CCCN(C)C)cc2F)c(Cl)nc2ncnn12)C(F)(F)F [Compound 44, (S)-5-Chloro-6-(4-(4-(dimethylamino)but-1-yn-1-yl)-2,6-difluorophenyl)-N-(1,1,1-trifluoropropan-2-yl)-[1,2,4]triazolo[1,5-a]pyrimidin-7-amine]	–	2.01	1.17	10.9	6.33	0.77	0.93	–	–	–	–	2.01 fold-change	10.9 ± 0.24	1.17 fold-change	6.33 ± 0.22	0.77 ± 0.04	0.93 ± 0.03	–
